From patent US20090131366A1, “Use of Amine-Borane Compounds as Anti-Microbial Agents” (priority 2005, published 2009)
≈ marks a conversion by molar mass, not a printed value. Like-named read-outs stand apart in the source and are kept apart here.

Legend:
Candida albicans 607 = assay type: cell-based
Candida albicans 615 = assay type: cell-based
Candida glabrata 4210 = assay type: cell-based; settings: Table 1, footnote c
Candida glabrata 4681 = assay type: cell-based; settings: Table 1, footnote c
Candida glabrata 4787 = assay type: cell-based
Candida albicans CBS 562 = assay type: cell-based
[1] = tested on: Candida glabrata 4475 (resistant to azoles); assay type: cell-based; settings: Table 1, footnote c
[2] = tested on: Aspergillus fumigatus 64026; assay type: cell-based
in vivo = settings: male, ICR, mouse, iv
male ICR mice = settings: mice that received the MTD

Molecule	MIC (Candida albicans 607; Table 1) [µM]	MIC (Candida albicans 615; Table 1) [µM]	MIC (Candida albicans CBS 562; Table 1) [µM]	MIC (Candida albicans 607; Table 1, read-out: MIC) [µM]	MIC ([2]; Table 1, read-out: MIC) [µM]	MIC (Candida albicans 615; Table 1, read-out: MIC) [µM]	MIC (Candida albicans CBS 562; CBS562, Table 1, read-out: MIC) [µM]	other results
N,N,N′,N′-tetramethyl- decane-1,10-diamine bis- cyanobromoborane [K-J1]	140	140	140					MIC (Candida glabrata 4210): 65^c μg per liter; MIC (Candida glabrata 4681): 65^c μg per liter; MIC (Candida glabrata 4787; Table 1): 65 µM; MIC [1]: 65^c μg per liter
C=CCCN(C)C [K-D, but-3-enyl-dimethyl-amine cyanoborane]				3620 (≈ 359 µg/mL)	> 3620	> 3620	470 (≈ 46.6 µg/mL)	
N,N,N′,N′-tetramethyl- decane-1,10-diamine bis- carboxyborane [K-J3]	188	907	188					MIC (Candida glabrata 4210): 65^c μg per liter; MIC (Candida glabrata 4681): 65^c μg per liter; MIC (Candida glabrata 4787; Table 1): 65 µM; MIC [1]: 31.2^c μg per liter
CCCCCCCCCCCN(C)C [K-I2, dimethyl-undecyl-amine cyanodibromoborane]	39 (≈ 7.78 µg/mL)	39 (≈ 7.78 µg/mL)	39 (≈ 7.78 µg/mL)					MIC ([2]; Table 1): 79 µM (≈ 15.8 µg/mL); MTD (in vivo): 73.1 µmol/kg; MIC (Candida glabrata 4681): 32^c μg per liter; MIC (Candida glabrata 4787; Table 1): 32 µM (≈ 6.38 µg/mL); clinical signs, body weights and gross necropsy (day 8) (male ICR mice): No changes
C[N+](C)(CCCCCCCCCC[N+](C)(C)[B-](Br)(Br)C#N)[B-](Br)(Br)C#N [K-J2, N,N,N′,N′-tetramethyl-decane-1,10-diamine bis-cyanodibromoborane]	104 (≈ 64.7 µg/mL)	104 (≈ 64.7 µg/mL)	104 (≈ 64.7 µg/mL)					MIC (Candida glabrata 4210): 65^c μg per liter; MIC (Candida glabrata 4681): 65^c μg per liter; MIC (Candida glabrata 4787; Table 1): 65 µM (≈ 40.4 µg/mL); MIC [1]: 65^c μg per liter
C[N+](C)(C)[B-](Br)(Br)C#N [K-E, trimethyl-amine cyanodibromoborane]	>1970	>1970	1970 (≈ 504 µg/mL)					MIC (Candida glabrata 4210): 500^c μg per liter; MIC [1]: >500^c μg per liter
CCCCCCCCCCCN(C)C [K-I4, dimethyl-undecyl-amine cyanofluoroborane]	64 (≈ 12.8 µg/mL)	64 (≈ 12.8 µg/mL)	64 (≈ 12.8 µg/mL)					MIC ([2]; Table 1): 129 µM (≈ 25.7 µg/mL)
CCCCN(C)C [K-G, butyl-dimethyl-amine cyanoborane]				> 3570	> 3570	> 3570	3570 (≈ 361 µg/mL)	
CCCCCCCCCCCN(C)C [K-I1, dimethyl-undecyl-amine cyanobromoborane]								MIC (Candida albicans 607; Candida albicans, 607, Table 1 column B, read-out: MIC): 49 µM (≈ 9.77 µg/mL); MIC ([2]; Aspergillus fumigatus, 64026, Table 1 column I, read-out: MIC): 131 µM (≈ 26.1 µg/mL); MIC (Candida albicans 615; Candida albicans, 615, Table 1 column C, read-out: MIC): 49 µM (≈ 9.77 µg/mL); MIC (Candida albicans CBS 562; Candida albicans, CBS562, Table 1 column A, read-out: MIC): 49 µM (≈ 9.77 µg/mL)
OC(Cn1cncn1)(Cn1cncn1)c1ccc(F)cc1F [CAF2, Fluconazole, reference compound]				1.6 (≈ 0.49 µg/mL)	> 208	1.6 (≈ 0.49 µg/mL)	1.6 (≈ 0.49 µg/mL)	
C[C@@H]1[C@H](O)[C@@H](C)/C=C/C=C/C=C/C=C/C=C/C=C/C=C/[C@H](O[C@@H]2O[C@H](C)[C@@H](O)[C@H](N)[C@@H]2O)C[C@@H]2O[C@](O)(C[C@@H](O)C[C@@H](O)[C@H](O)CC[C@@H](O)C[C@@H](O)CC(=O)O[C@H]1C)C[C@H](O)[C@H]2C(=O)O [CAF1, Amphotericin B, reference compound]	0.27 (≈ 0.25 µg/mL)	0.27 (≈ 0.25 µg/mL)	0.54 (≈ 0.499 µg/mL)					MIC ([2]; Table 1): 0.5 µM (≈ 0.462 µg/mL)
CCCCCCC(C)(O)CN(C)C (centres unmarked) [K-O, 1-dimethylamino-2-methyl-octan-2-ol cyanoborane]				1100 (≈ 206 µg/mL)		1100 (≈ 206 µg/mL)	2210 (≈ 414 µg/mL)	
CN(C)CCCCCCCCCCCCCCN(C)C [K-N, N,N,N′,N′-tetramethyl-tetradecane-1,14-diamine bis-cyanoborane]				43 (≈ 12.2 µg/mL)	86 (≈ 24.5 µg/mL)	43 (≈ 12.2 µg/mL)	43 (≈ 12.2 µg/mL)	
C=CCCCCN(C)C [K-V, hex-5-enyl-dimethyl-amine cyanoborane]				94 (≈ 12 µg/mL)	94 (≈ 12 µg/mL)	94 (≈ 12 µg/mL)	94 (≈ 12 µg/mL)	
CN(C)CCCCCCCCCCCCN(C)C [K-M, N,N,N′,N′-tetramethyl-dodecane-1,12-diamine bis-cyanoborane]				194 (≈ 49.8 µg/mL)		46 (≈ 11.8 µg/mL)	96 (≈ 24.6 µg/mL)	MIC (Candida glabrata 4681): 125^c μg per liter; MIC (Candida glabrata 4787; Nakaseomyces glabratus, Table 1, read-out: MIC): 250 µM (≈ 64.1 µg/mL)
CCCCCN(C)C [K-H, pentyl-dimethyl-amine cyanoborane]				3240 (≈ 373 µg/mL)	3240 (≈ 373 µg/mL)	3240 (≈ 373 µg/mL)	810 (≈ 93.3 µg/mL)	
CCCCCCCCCCCN(C)C [K-I3, dimethyl-undecyl-amine cyanofluorobromoborane]								MIC (Candida albicans CBS 562; Candida albicans, CBS562, 24 h, Table 1, read-out: MIC): 7.8 µM (≈ 1.56 µg/mL)
CCCCCCCCCC(O)CN(C)C (centres unmarked) [K-U, 1-dimethylamino-undecan-2-ol cyanoborane]				492 (≈ 106 µg/mL)	492 (≈ 106 µg/mL)	983 (≈ 212 µg/mL)	492 (≈ 106 µg/mL)	
